Source: patent publication US11427581B2, “JAK inhibitor and use thereof” (ZHUHAI UNITED LABORATORIES CO., LTD., priority 2018, dated 2022)
Read-outs that look alike come from different tables or passages of the source.

Tests used:
JAK3 (h) = JAK3 (h) (Homo sapiens (Human), UniProt P52333); test: In vitro activity assay of JAK3 kinase (radiometric 33P-ATP, Eurofins); format: biochemical; details: recombinant human JAK3
Protocol: (§1) Recombinant human-derived JAK1, JAK2, JAK3, Tyk2 protease, main instruments and reagents were provided by Eurofins in the UK
(§2) JAK2, JAK3 and TYK2 dilution: 20 mM MOPS, 1 mM EDTA, 0.01% Brij-35.5% glycerol, 0.1% β-mercaptoethanol. 1 mg/mL BSA; JAK1 dilution: 20 mM TRIS, 0.2 mM EDTA, 0.1% β-mercaptoethanol, 0.01% Brij-35.5% glycerol. All compounds were prepared as 100% DMSO solutions, and the concentration of the compound reached 50 times the final measured concentration. The test compound was diluted with a 3-fold concentration gradient, the final concentration was 10 μM to 0.001 μM in total 9 concentrations, and the content of DMSO in the detection reaction was 2%. The working stock solution of the compound was added to the wells as the first component of the reaction, and then the remaining components were added according to the protocol detailed below.
(§3) JAK3 (h) was incubated with 8 mM MOPS pH 7.0, 0.2 mM EDTA, 500 μM […], 10 mM magnesium acetate and [γ-^33P]-ATP (activity and concentration were formulated as needed). Mg/ATP mixture was added to initiate the reaction. After incubating at room temperature for 40 minutes, the reaction mixture was added with 0.5% phosphoric acid to stop the reaction. Then 10 μL the reaction solution was spotted on a P30 filter pad and washed with 0.425% phosphoric acid three times and methanol once over 4 minutes, dried, and counted scintillation.
(§4) The IC50 results were analyzed by XLFIT5 (205 formula) of IDBS Company, see Table 1 for details.

[1] = Pharmacokinetic (PK) assay in rat; format: in vivo; details: male SD rat; for Bioavailability: gavage vs tail vein; for Cmax: read-out: Cmax (peak concentration)
Protocol: The clear solution obtained by dissolving the test compound was injected into male mice (C57BL/6) or rats (SD) by tail vein and gavage respectively (overnight fasting, 7-8 weeks old). […] The drug concentration on blood was determined by LC-MS/MS, the related pharmacokinetic parameters were calculated by the linear logarithm trapezoid method of non atrioventricular model by WinNonlin™ Version 6.3.

TYK2 (h) = TYK2 (h) (Homo sapiens (Human), UniProt P29597); test: In vitro activity assay of TYK2 kinase (radiometric 33P-ATP, Eurofins); format: biochemical; details: recombinant human TYK2
Protocol: as §1, §2
as §3, with “TYK2” for “JAK3”, “250” for “500”, “μL” for “μL the”, “reaction” for “reaction solution”
as §4

[2] = test system: adjuvant-induced arthritis rat model; test: In vivo drug efficacy study in an adjuvant-induced arthritis model (AIA); details: for average foot volume of arthritis rat: vehicle 2.8 mL
JAK2 (h) = JAK2 (h) (Homo sapiens (Human), UniProt O60674); test: In vitro activity assay of JAK2 kinase (radiometric 33P-ATP, Eurofins); format: biochemical; details: recombinant human JAK2
JAK1 (h) = JAK1 (h) (Homo sapiens (Human), UniProt P23458); test: In vitro activity assay of JAK1 kinase (radiometric 33P-ATP, Eurofins); format: biochemical; details: recombinant human JAK1
[3] = tail vein and gavage groups, route of the parameter and dose not given
[4] = 15 mg/kg p.o. bid 14 d, end of the experiment (27th day)
[5] = 15 mpk p.o. bid 14 d, end of the experiment (27th day), vehicle peak about 8.5

JAK3 (h), sequence (P52333 whole entry): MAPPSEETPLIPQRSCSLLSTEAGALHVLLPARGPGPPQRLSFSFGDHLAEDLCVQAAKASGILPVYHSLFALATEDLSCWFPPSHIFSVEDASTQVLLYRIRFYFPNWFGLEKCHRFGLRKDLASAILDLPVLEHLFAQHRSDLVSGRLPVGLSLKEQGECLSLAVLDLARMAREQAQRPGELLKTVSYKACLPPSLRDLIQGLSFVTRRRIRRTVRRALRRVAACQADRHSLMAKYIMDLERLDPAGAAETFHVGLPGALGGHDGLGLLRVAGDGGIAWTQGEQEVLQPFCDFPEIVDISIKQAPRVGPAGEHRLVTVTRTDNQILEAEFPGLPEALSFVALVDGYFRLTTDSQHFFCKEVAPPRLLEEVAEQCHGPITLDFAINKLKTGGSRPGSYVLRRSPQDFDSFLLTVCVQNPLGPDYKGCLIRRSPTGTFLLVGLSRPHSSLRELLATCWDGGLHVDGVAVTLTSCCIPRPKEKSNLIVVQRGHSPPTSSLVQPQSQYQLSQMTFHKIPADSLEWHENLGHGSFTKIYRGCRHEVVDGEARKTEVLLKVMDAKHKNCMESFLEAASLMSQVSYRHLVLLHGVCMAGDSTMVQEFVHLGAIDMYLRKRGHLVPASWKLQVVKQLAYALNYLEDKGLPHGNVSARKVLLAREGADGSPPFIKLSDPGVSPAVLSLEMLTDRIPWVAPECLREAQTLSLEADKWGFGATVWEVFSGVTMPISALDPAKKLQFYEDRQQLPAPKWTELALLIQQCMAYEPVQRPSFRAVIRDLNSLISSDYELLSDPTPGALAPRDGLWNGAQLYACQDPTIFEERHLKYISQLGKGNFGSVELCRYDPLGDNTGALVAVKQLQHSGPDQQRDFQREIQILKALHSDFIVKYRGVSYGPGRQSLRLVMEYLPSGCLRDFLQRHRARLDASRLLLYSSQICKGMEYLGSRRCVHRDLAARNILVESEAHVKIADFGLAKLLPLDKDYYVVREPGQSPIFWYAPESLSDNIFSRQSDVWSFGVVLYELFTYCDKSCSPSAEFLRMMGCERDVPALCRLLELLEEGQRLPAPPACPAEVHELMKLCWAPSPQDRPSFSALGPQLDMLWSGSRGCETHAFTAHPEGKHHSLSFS
JAK1 (h), sequence (P23458 whole entry): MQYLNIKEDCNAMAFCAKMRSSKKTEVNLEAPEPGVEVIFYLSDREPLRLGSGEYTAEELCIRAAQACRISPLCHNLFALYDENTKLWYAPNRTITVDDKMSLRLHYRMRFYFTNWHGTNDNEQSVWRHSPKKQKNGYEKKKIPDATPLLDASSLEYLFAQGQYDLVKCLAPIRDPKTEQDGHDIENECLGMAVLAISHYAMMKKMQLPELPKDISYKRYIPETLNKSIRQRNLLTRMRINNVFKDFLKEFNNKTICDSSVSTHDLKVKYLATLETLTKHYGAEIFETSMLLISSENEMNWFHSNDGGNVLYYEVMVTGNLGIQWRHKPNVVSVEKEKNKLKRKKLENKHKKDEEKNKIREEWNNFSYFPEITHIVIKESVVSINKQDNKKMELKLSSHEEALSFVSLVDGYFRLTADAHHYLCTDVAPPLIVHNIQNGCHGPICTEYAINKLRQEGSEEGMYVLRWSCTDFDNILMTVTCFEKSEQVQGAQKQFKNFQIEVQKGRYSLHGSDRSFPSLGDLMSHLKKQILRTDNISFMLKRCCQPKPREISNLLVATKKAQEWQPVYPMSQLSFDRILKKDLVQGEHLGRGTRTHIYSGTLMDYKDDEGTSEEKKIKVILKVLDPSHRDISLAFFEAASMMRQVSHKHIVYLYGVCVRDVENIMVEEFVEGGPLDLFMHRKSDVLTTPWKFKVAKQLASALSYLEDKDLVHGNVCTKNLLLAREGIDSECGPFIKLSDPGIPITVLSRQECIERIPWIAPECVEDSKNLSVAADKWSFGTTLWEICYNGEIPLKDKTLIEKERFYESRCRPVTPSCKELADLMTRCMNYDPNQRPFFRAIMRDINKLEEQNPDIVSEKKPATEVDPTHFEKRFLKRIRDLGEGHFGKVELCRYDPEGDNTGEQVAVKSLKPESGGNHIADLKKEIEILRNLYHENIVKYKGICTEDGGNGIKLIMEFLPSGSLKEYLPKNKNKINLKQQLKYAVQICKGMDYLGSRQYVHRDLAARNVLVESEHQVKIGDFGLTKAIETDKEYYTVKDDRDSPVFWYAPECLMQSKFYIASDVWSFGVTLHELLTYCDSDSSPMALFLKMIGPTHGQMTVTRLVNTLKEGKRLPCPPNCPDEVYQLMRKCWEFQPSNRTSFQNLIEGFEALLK
JAK2 (h), sequence (O60674 whole entry): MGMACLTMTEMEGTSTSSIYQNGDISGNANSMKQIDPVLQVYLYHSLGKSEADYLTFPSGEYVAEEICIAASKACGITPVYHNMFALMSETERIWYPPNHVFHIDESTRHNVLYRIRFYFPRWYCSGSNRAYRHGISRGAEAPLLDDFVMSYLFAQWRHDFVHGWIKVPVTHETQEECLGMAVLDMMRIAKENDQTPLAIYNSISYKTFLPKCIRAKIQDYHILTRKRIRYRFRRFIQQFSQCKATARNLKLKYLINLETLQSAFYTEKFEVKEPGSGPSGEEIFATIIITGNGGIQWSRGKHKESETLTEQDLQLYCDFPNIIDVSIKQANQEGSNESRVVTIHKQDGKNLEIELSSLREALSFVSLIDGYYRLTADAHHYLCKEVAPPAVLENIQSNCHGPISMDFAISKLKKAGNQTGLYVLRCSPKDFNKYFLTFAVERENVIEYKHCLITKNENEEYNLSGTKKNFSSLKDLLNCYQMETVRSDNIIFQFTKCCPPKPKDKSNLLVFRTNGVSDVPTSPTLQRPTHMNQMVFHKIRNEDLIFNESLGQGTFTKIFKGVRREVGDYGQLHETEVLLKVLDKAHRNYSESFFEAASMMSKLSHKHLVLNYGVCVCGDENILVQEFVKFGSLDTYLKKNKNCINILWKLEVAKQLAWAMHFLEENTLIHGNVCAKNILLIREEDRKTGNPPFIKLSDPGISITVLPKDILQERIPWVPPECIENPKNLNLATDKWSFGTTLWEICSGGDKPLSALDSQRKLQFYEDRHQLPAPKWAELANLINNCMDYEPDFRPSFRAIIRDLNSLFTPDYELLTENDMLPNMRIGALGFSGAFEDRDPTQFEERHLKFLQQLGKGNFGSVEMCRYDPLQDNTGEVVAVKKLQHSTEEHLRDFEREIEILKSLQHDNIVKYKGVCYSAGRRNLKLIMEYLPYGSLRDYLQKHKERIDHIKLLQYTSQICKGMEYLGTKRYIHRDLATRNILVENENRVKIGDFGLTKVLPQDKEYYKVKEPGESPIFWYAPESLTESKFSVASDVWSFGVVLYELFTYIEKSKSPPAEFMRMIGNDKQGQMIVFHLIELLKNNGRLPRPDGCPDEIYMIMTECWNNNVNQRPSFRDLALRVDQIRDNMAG
TYK2 (h), sequence (P29597 whole entry): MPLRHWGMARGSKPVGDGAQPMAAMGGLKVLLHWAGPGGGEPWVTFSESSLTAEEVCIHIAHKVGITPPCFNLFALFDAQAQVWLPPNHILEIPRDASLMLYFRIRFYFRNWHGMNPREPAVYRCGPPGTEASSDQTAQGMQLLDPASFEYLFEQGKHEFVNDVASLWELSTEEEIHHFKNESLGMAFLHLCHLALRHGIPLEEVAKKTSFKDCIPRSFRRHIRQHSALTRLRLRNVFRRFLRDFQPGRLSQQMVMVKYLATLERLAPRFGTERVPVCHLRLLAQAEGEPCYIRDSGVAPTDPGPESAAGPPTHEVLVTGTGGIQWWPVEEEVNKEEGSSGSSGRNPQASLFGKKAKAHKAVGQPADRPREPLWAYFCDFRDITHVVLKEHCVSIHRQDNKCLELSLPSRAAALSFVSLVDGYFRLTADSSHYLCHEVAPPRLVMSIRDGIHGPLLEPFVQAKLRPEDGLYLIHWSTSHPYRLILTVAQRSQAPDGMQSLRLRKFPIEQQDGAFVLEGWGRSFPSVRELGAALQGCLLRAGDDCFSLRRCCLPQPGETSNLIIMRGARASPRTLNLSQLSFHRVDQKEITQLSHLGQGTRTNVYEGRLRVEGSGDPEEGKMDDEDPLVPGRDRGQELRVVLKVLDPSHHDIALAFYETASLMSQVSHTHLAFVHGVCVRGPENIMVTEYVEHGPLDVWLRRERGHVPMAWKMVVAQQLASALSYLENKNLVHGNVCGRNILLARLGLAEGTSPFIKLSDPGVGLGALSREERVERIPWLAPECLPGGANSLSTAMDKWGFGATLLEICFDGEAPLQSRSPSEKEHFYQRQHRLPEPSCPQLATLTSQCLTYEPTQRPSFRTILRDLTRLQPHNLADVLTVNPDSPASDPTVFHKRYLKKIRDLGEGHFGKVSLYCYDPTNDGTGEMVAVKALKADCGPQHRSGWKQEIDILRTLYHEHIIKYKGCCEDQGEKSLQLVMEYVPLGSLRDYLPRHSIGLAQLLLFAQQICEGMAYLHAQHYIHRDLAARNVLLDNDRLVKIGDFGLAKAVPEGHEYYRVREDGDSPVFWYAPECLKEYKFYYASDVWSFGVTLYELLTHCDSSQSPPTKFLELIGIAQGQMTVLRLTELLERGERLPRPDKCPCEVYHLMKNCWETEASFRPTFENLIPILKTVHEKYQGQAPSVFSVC

IC50 (JAK1 (h))	SMILES	IC50 (JAK3 (h))	IC50 (TYK2 (h))	IC50 (JAK2 (h))	other results
–	O=C(Nc1nc2cccc(C3CCC(NC(=O)C4CC4(F)F)CC3)n2n1)C1CC1 (centres unmarked) [Compound 4-2]	2.05 µM	10 nM	–	Bioavailability [1]: 58.6%; AUC0-inf [1, 3]: 11.021 µM·h; T1/2 (half-life) [1, 3]: 2.22 h; Cmax [1, 3]: 13.4 µM
–	C[C@@H]1C[C@H]2[C@@H]3CCC4=CC(=O)C=C[C@]4(C)[C@@]3(F)[C@@H](O)C[C@]2(C)[C@@]1(O)C(=O)CO [Dexamethasone, reference compound]	–	–	–	inhibition rate relative to the vehicle control group (foot volume curve AUC) ([2]; 0.3 mg/kg p.o. qd 14 d): 44.9%; average foot volume of arthritis rat ([2]; 0.3 mg/kg p.o. qd 14 d, end of the experiment): 1.1 mL; clinical score of arthritis rats ([2]; 0.3 mg/kg p.o. qd 14 d, from the 23rd day until the end of the experiment): about 2.0
90 nM	O=C(Nc1nc2cccc(C3=CCN(C(=O)C4CC4)CC3)n2n1)C1CC1 [Compound 5-4]	> 10 µM	178 nM	422 nM	–
–	O=C(Nc1nc2cccc(C3=CC[C@@H](NC(=O)[C@@H]4CC4(F)F)CC3)n2n1)C1CC1 [Compound 3-1]	5.52 µM	78 nM	141 nM	Bioavailability [1]: 30.0%; AUC0-inf [1, 3]: 19.967 µM·h; T1/2 (half-life) [1, 3]: 3.11 h; Cmax [1, 3]: 3.8 µM
531 nM	O=C(Nc1nc2cccc(C3=CCN(C(=O)C4(F)CC4)C3)n2n1)C1CC1 [Compound 6-2]	> 10 µM	2870 nM	1120 nM	–
–	O=C(Nc1nc2cccc(C3=CCC(NC(=O)C4CC4(F)F)CC3)n2n1)C1CC1 (centres unmarked) [Compound 1-7]	3.11 µM	73 nM	239 nM	Bioavailability [1]: 75.2%; AUC0-inf [1, 3]: 18.033 µM·h; T1/2 (half-life) [1, 3]: 2.07 h; Cmax [1, 3]: 23.9 µM
70 nM	O=C(Nc1nc2cccc(C3=CCN(C(=O)C4CC4(F)F)C3)n2n1)C1CC1 (centres unmarked) [Compound 6-1]	> 10 µM	244 nM	–	–
163 nM	O=C(Nc1nc2cccc(C3=CC[C@@H](NC(=O)[C@H]4CC4(F)F)CC3)n2n1)C1CC1 [Compound 3-2]	–	1370 nM	–	–
166 nM	O=C(Nc1nc2cccc(C3=CC[C@H](NC(=O)[C@@H]4CC4(F)F)CC3)n2n1)C1CC1 [Compound 3-3]	–	942 nM	–	–
149 nM	O=C(Nc1nc2cccc(C3=CCC(NC(=O)C4CC4)CC3)n2n1)C1CC1 (centres unmarked) [Compound 1-12]	> 10 µM	497 nM	1420 nM	–
31 nM	O=C(Nc1nc2cccc(C3CCC(NC(=O)C4(F)CC4)CC3)n2n1)C1CC1 (centres unmarked) [Compound 4-3]	4.38 µM	127 nM	360 nM	Bioavailability ([1]; blood, po, read-out: Bioavailability): 89.8%; AUC0-inf ([1]; blood, po, tail vein and gavage groups, route of the parameter and dose not given, read-out: AUC0-inf): 85.8 µM·h; Cmax ([1]; blood, po, tail vein and gavage groups, route of the parameter and dose not given): 24.8 µM; half-life ([1]; blood, po, tail vein and gavage groups, route of the parameter and dose not given, read-out: T1/2 (half-life) (converted)): 172 min; average foot volume of arthritis rat [2, 4]: 1.5 mL; clinical score of arthritis rats [2, 5]: 2.6; inhibition at 15 mg/kg ([2]; Rattus norvegicus, po, 336 h, 15 mg/kg p.o. bid 14 d, read-out: inhibition rate relative to the vehicle control group (foot volume curve AUC)): 32.3%

SMILES	IC50 (JAK1 (h))	IC50 (JAK3 (h))	IC50 (TYK2 (h))	IC50 (JAK2 (h))	other results
O=C(Nc1nc2cccc(C3CCC(NC(=O)[C@H]4CC4(F)F)CC3)n2n1)C1CC1 (single isomer, unassigned) [Compound 8-4]	442 nM	> 10 µM	2440 nM	3750 nM	–
O=C(Nc1nc2cccc(C3CCC(NC(=O)[C@@H]4CC4(F)F)CC3)n2n1)C1CC1 (single isomer, unassigned) [Compound 8-1]	111 nM	> 10 µM	633 nM	861 nM	–
O=C(Nc1nc2nccc(C3CCC(NC(=O)C4CC4(F)F)CC3)c2s1)C1CC1 (centres unmarked) [Compound 10-9]	2290 nM	> 10 µM	245 nM	> 10000 nM	–
O=C(Nc1nc2cccc(C3CCC(NC(=O)[C@H]4CC4(F)F)CC3)n2n1)C1CC1 (single isomer, unassigned) [Compound 8-2]	2 nM	0.957 µM	24 nM	–	inhibition rate relative to the vehicle control group (foot volume curve AUC) ([2]; 5 mg/kg p.o. bid 14 d): 38.0%; average foot volume of arthritis rat ([2]; 5 mg/kg p.o. bid 14 d, end of the experiment (27th day)): 1.4 mL; inhibition rate relative to the vehicle control group (foot volume curve AUC) ([2]; 15 mg/kg p.o. bid 14 d): 44.5%; average foot volume of arthritis rat [2, 4]: 1.1 mL; clinical score of arthritis rats ([2]; 5 mpk p.o. bid 14 d, end of the experiment (27th day), vehicle peak about 8.5): 2.7; clinical score of arthritis rats [2, 5]: 1.0; body weight of arthritis rats ([2]; dose groups 5 and 15 mg/kg p.o. bid, weight decreased from the 15th to the 17th day): began to recover slowly on the 19th day
O=C(Nc1nc2cccc(C3=CC[C@H](NC(=O)[C@H]4CC4(F)F)CC3)n2n1)C1CC1 [Compound 3-4]	17 nM	2.55 µM	71 nM	126 nM	–
O=C(Nc1nc2cccc(C3CCC(NC(=O)[C@@H]4CC4(F)F)CC3)n2n1)C1CC1 (single isomer, unassigned) [Compound 8-3]	494 nM	> 10 µM	3440 nM	5770 nM	–
